Where two headings read alike, the source gives them in different places.
Experiments:
[1] = test system: SK-N-MC neuroepithelioma cells; assay: MTT assay, inhibition of growth of SK-N-MC cells; type: cell-based, Human; conditions: 72 h, medium with diferric transferrin 1.25 μM, mean ± SD (three experiments), read-out: IC50 at inhibiting the growth of SK-N-MC neuroepithelioma cells
Method: Human SK-N-MC neuroepithelioma cells were obtained from the American Type Culture Collection (ATCC; Manassas, VA). The SK-N-MC cell type was grown as described previously.[51]
The effect of complexes [1a,b]Cl–[3a,b]Cl on the cellular proliferation of SK-N-MC cells was examined using the 1-(4,5-dimethylthiazol-2-yl)-2,5-diphenyl-tetrazolium (MTT) assay by standard techniques.[52],[53] Human SK-N-MC cells were chosen for these studies as the antiproliferative effect of metal complexes has been extensively examined in this cell type.[52]−[54] MTT reduction is proportional to viable cell counts using SK-N-MC cells.[51] SK-N-MC cells were seeded at 1.5 × 10^4 cells/well in 96-well microtiter plates in a medium containing the compounds (0–50 μM) and human diferric transferrin (Tf) at 1.25 μM ([Fe] = 2.5 μM). Control samples contained Tf (1.25 μM) in the absence of the compounds. […] It is essential to add to the media when assessing the antiproliferative activity of the ligands used as positive controls, namely, desferrioxamine (DFO), di-2-pyridylketone 4,4-dimethyl-3-thiosemicarbazone (Dp44mT), and Doxorubicin.[61] The cells were incubated at 37 °C for 72 h, after which 10 μL of MTT solution (stock solution: 5 mg/mL) was added to each well and incubated for 2 h at 37 °C. After cell solubilization using 100 μL of 10% SDS–50% isobutanol in 0.01 M HCl, the plates were read at 570 nm using a scanning multiwell spectrophotometer. The inhibitory concentration (IC50) was defined as the concentration of the compound necessary to reduce the absorbance to 50% of the untreated control.

[2] = Hydrolysis / stability in aqueous media by HPLC; type: physicochemical; conditions: for Estimated half-lifetime of the chlorido species: 75 μM solution in 20 mM phosphate buffer at pH 7.40, HPLC with UV detection at 300 nm; for Fraction of complex hydrolyzed after 24 h: 20 mM NaH2PO4/Na2HPO4 buffer at pH 7.40, 24 h, HPLC (Figure S4)
Method: One-dimensional (1D) ^1H and ^13C NMR and two-dimensional (2D) ^1H–^1H COSY, ^1H–^1H TOCSY, ^1H–^1H ROESY or ^1H–^1H NOESY, ^1H–^13C HSQC, and ^1H–^13C HMBC NMR spectra were recorded on two Bruker Avance III spectrometers at 500.32 or 500.10 (^1H), and 125.82 or 125.76 (^13C) MHz, respectively, by using DMSO-d6 as a solvent at room temperature and standard pulse programs. ^1H and ^13C shifts are quoted relative to the solvent residual signals. The atom numbering scheme used for NMR assignments is depicted in Supporting Information, Scheme S1. Electrospray ionization mass spectrometry (ESI-MS) was carried out with a Bruker Esquire 3000 instrument, and the samples were dissolved in methanol. Elemental analyses were performed at the Microanalytical Laboratory of the University of Vienna with a PerkinElmer 2400 CHN Elemental Analyzer (PerkinElmer, Waltham, MA). Hydrolysis studies were undertaken on a ThermoFisher Dionex UltiMate 3000 HPLC (Waltham, MA) device. The column compartment was kept at 298 K. A Hypersil Gold C18 Reversed phase Silica Column (250 × 4.6 mm, 5 μm particle size, ThermoFisher; Waltham, MA) equipped with a guard column was used. The complexes were dissolved in either pure deionized water or phosphate buffer at pH 7.40 so that the final concentrations were 100 mM or 75 μM, respectively. Samples were automatically injected into the HPLC, and separation of the hydrolysis products was achieved by applying gradient elution (5–80% or 10–50% acetonitrile in 15 mM aqueous formic acid). Detection and quantification of the peaks was conducted using the ThermoFisher Dionex DAD-3000RS UV detector (Waltham, MA) at a wavelength of 300 nm and the Chromeleon 7 software package (ThermoFisher Dionex, Sunnyvale, CA).
Their stability in deionized water (Supporting Information, Figure S3) is very similar to that in buffered solution at physiological pH (Supporting Information, Figure S4; 20 mM NaH2PO4/Na2HPO4 buffer at pH 7.40). […] Attempts to establish the nature of the predominant hydrolysis reactions were then performed. The fractions containing the two peaks from the hydrolysis of [2a]Cl were collected and subjected to high-resolution ESI mass spectrometry. The most abundant mass at m/z 373.1397 could be attributed to the doubly charged fragment [M–2Cl]^2+, whereas the second peak at m/z 736.2786 was assigned to the hydroxido species [M–2Cl+OH]^+, clearly stemming from hydrolysis of the chlorido ligand.
Data were recorded every hour over 24 h using HPLC with UV detection at 300 nm (see Experimental Section for details). Quantification was done by normalizing the AUC to the AUC at 0 h.

[3] = Stability in DMSO by ESI mass spectrometry; type: physicochemical; conditions: DMSO solution, up to 19 h old, diluted with methanol 1:100, ESI-MS
Source text: Complexes [3a]Cl and [3b]Cl remain intact when dissolved in DMSO.

Molecule: CC(=O)N(O)CCCCCNC(=O)CCC(=O)N(O)CCCCCNC(=O)CCC(=O)N(O)CCCCCN [DFO, desferrioxamine, reference compound]
- IC50 ([1]; Homo sapiens, SK-N-MC): 9.83 ± 0.39 µM

Molecule: COc1cccc2c1C(=O)c1c(O)c3c(c(O)c1C2=O)C[C@@](O)(C(=O)CO)C[C@@H]3O[C@H]1C[C@H](N)[C@H](O)[C@H](C)O1 [DOX, doxorubicin, reference compound]
- IC50 ([1]; Homo sapiens, SK-N-MC): 0.15 ± 0.05 µM

Molecule: CN(C)C(=S)NN=C(c1ccccn1)c1ccccn1 [Dp44mT, di-2-pyridylketone 4,4-dimethyl-3-thiosemicarbazone, reference compound]
- IC50 [1]: 0.004 ± 0.003 µM

Molecule: (η^6-p-Cymene)[6-(4-methylpiperazin-1-yl)-κN-(pyridin-2-yl-methylene)-11H-indolo[3,2-c]quinolin-2-κN-amine]chloridoosmium(II) Chloride [[1b]Cl]
- IC50 [1]: > 50 µM

Molecule: (η^6-p-Cymene)[6-(4-methylpiperazin-1-yl)-κN-(pyridin-2-yl-methylene)-11H-indolo[3,2-c]quinolin-2-κN-amine]chloridoruthenium(II) Chloride [[1a]Cl]
- IC50 [1]: 39.8 ± 2.07 µM

Molecule: (η^6-p-Cymene)[6-(4-methylpiperazin-1-yl)-κN-(pyridin-2-yl-methylene)-11H-indolo[3,2-c]quinolin-4-κN-amine]chloridoosmium(II) Chloride [[2b]Cl]
- IC50 [1]: 19.4 ± 1.28 µM
- Estimated half-lifetime of the chlorido species [2]: approximately 6 h
- Fraction of complex hydrolyzed after 24 h [2]: greater than 90%

Molecule: (η^6-p-Cymene)[6-(4-methylpiperazin-1-yl)-κN-(pyridin-2-yl-methylene)-11H-indolo[3,2-c]quinolin-4-κN-amine]chloridoruthenium(II) Chloride [[2a]Cl]
- IC50 [1]: 18.4 ± 2.22 µM
- Estimated half-lifetime of the chlorido species [2]: approximately 6 h
- AUC of third (minor) hydrolysis species compared to the starting material ([2]; 75 μM solution in 20 mM phosphate buffer at pH 7.40, after 24 h): approximately 12%
- Fraction of complex hydrolyzed after 24 h [2]: greater than 90%

Molecule: (η^6-p-Cymene)[6-(4-methylpiperazin-1-yl)-κN-(pyridin-2-yl-methylene)-11H-indolo[3,2-c]quinolin-8-κN-amine]chloridoosmium(II) Chloride [[3b]Cl]
- IC50 [1]: 41.2 ± 2.37 µM
- Stability when dissolved in DMSO [3]: remain intact

Molecule: (η^6-p-Cymene)[6-(4-methylpiperazin-1-yl)-κN-(pyridin-2-yl-methylene)-11H-indolo[3,2-c]quinolin-8-κN-amine]chloridoruthenium(II) Chloride [[3a]Cl]
- IC50 [1]: > 50 µM
- Stability when dissolved in DMSO [3]: remain intact
